Laboratory results as given in US20090029949A1, “GPCR Ligands Identified by Computational Modeling” (priority 2006, published 2009).

What was measured:
S1P1 mutant F5.48G = molecular target: T1, S1P1 mutant F5.48G (Homo sapiens, UniProt P21453, F210G); test: [32P]S1P radioligand binding, RH7777 cells, F5.48G; conditions: radioligand 50 nM, S1P1 F5.48G
T1 construct: expressed in transfected cells
Description: (§1) RH7777 and HEK-293 cells (ATCC, Manassas, Va.) were maintained in Dulbecco's modified minimal essential medium (DMEM) containing 10% fetal bovine serum (Hyclone, Logan, Utah). Cells (2×10^6) were transfected with 2 μg of plasmid DNA with Effectene (Qiagen, Valencia, Calif.) according to the manufacturer's instructions, for 24 h. Before ligand binding and receptor activation assays, the cells were washed twice with serum-free DMEM and serum-starved for at least 6 h.
The S1P binding assays were done essentially as previously described (28). Transfected RH7777 cells (5×10^5) were incubated at 4° C. in 20 mM Tris-HCl (pH 7.5) binding buffer containing 100 mM NaCl, 15 mM NaF, protease inhibitor cocktail (Sigma-Aldrich), and 0.2 mg/ml essentially fatty-acid free BSA with 1 nM [^32P]S1P in 50 nM S1P for 40 min. Cells were centrifuged and washed twice in binding buffer. The final pellet was resuspended in 2:1 CHCl3/MeOH and the suspension was equilibrated in scintillation fluid overnight. Cell-bound radioactivity was measured by liquid scintillation counting using a Beckman LS5000 TA counter (Beckman Coulter, Irvine, Calif.). Specific binding was defined as the difference between total binding and non-specific binding (in the presence of 2-5 μM cold S1P). Standard errors were computed on the basis of triplicate samples from two simultaneous transfections.

S1P1 mutant L5.51E = molecular target: T2, S1P1 mutant L5.51E (Homo sapiens, UniProt P21453, L213E); test: [35S]GTPγS binding, S1P1 L5.51E; format: biochemical; conditions: S1P-induced, S1P1 L5.51E in RH7777 cells
T2 construct: expressed in transfected cells; host or cells: RH7777 (transient, pcDNA3.1)
T2 sequence (P21453 whole entry L213E): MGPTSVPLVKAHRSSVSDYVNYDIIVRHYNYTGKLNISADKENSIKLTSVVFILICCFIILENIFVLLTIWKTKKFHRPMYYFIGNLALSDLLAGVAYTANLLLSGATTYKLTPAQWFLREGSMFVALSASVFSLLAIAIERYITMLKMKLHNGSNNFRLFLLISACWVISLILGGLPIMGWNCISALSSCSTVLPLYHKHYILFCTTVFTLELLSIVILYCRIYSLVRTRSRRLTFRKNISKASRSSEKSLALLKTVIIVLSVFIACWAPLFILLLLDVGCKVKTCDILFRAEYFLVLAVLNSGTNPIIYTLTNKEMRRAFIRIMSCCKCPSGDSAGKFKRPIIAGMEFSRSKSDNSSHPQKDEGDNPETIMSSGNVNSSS
Description: as §1
(§2) S1P1 Receptor Activation Assays Receptor functional assays were performed in transiently transfected RH7777 cells by measuring S1P-activated [^35S]GTPγS binding as previously described (28).

S1P1 mutant C5.44D = molecular target: T3, S1P1 mutant C5.44D (Homo sapiens, UniProt P21453, C206D); test: [35S]GTPγS binding, S1P1 C5.44D; format: biochemical; conditions: S1P-induced, S1P1 C5.44D in RH7777 cells
T3 construct: expressed in transfected cells; host or cells: RH7777 (transient, pcDNA3.1)
T3 sequence (P21453 whole entry C206D): as the sequence (P21453 whole entry L213E) above, with C206D, E213L counted along it
Description: as §1, §2

S1P1 mutant V3.40T = molecular target: T4, S1P1 mutant V3.40T (Homo sapiens, UniProt P21453, V132T); test: [35S]GTPγS binding, S1P1 V3.40T; format: biochemical; conditions: S1P-induced, S1P1 V3.40T in RH7777 cells
T4 construct: expressed in transfected cells; host or cells: RH7777 (transient, pcDNA3.1)
T4 sequence (P21453 whole entry V132T): as the sequence (P21453 whole entry L213E) above, with V132T, E213L counted along it
Description: as §1, §2

S1P1 mutant V6.40T = molecular target: T5, S1P1 mutant V6.40T (Homo sapiens, UniProt P21453, V261T); test: [35S]GTPγS binding, S1P1 V6.40T; format: biochemical; conditions: S1P-induced, S1P1 V6.40T in RH7777 cells
T5 construct: expressed in transfected cells; host or cells: RH7777
T5 sequence (P21453 whole entry V261T): as the sequence (P21453 whole entry L213E) above, with E213L, V261T counted along it
Description: as §1, §2

S1P1 mutant L3.36E = S1P1 mutant L3.36E (Homo sapiens, UniProt P21453, L128E); test: [32P]S1P competition binding, HEK-293 cells, L3.36E; set-up: expressed in transfected cells; conditions: S1P1 L3.36E
Sequence of S1P1 mutant L3.36E (P21453 whole entry L128E): as the sequence (P21453 whole entry L213E) above, with L128E, E213L counted along it
Description: (§3) For the competition assays, HEK-293 cells were used. Briefly, 4×10^5 cells were plated in 24-well dishes and allowed to adhere overnight. The cells were then transfected with 0.4 μg of the cDNA using Lipofectamine 2000 (Invitrogen) and the transfection proceeded for 48 h. After washing the cells twice with ice-cold binding buffer (20 mM Tris-HCl, pH 7.4 and 150 mM NaCl), 0.1 nM [^32P]S1P and competing concentrations of cold S1P (1 nM-10 μM), resuspended in binding buffer+4% BSA, were applied to the cells and incubated on ice for 30 min. After washing the cells twice with ice-cold binding buffer+0.4% BSA, the cells were lysed with 0.5% SDS and equilibrated in scintillation fluid. The samples were measured in triplicate.

S1P1 mutant W6.48A = molecular target: T6, S1P1 mutant W6.48A (Homo sapiens, UniProt P21453, W269A); test: [32P]S1P competition binding, HEK-293 cells, W6.48A; conditions: S1P1 W6.48A
T6 construct: expressed in transfected cells
T6 sequence (P21453 whole entry W269A): as the sequence (P21453 whole entry L213E) above, with E213L, W269A counted along it
Description: as §3

[1] = Ligand-induced [35S]GTPγS binding, empty vector; format: biochemical; conditions: S1P-induced, empty vector in RH7777 cells
Description: as §1, §2

S1P1 mutant V6.40A = S1P1 mutant V6.40A (Homo sapiens, UniProt P21453, V261A); test: [32P]S1P competition binding, HEK-293 cells, V6.40A; set-up: expressed in transfected cells; conditions: S1P1 V6.40A
Sequence of S1P1 mutant V6.40A (P21453 whole entry V261A): as the sequence (P21453 whole entry L213E) above, with E213L, V261A counted along it
Description: as §3

S1P1 mutant F5.43Y = molecular target: T7, S1P1 mutant F5.43Y (Homo sapiens, UniProt P21453, F205Y); test: [35S]GTPγS binding, S1P1 F5.43Y; format: biochemical; conditions: S1P-induced, S1P1 F5.43Y in RH7777 cells
T7 construct: expressed in transfected cells; host or cells: RH7777 (transient, pcDNA3.1)
T7 sequence (P21453 whole entry F205Y): as the sequence (P21453 whole entry L213E) above, with F205Y, E213L counted along it
Description: as §1, §2

WT S1P1 = WT S1P1 (Homo sapiens, UniProt P21453); test: [32P]S1P competition binding, HEK-293 cells, WT-S1P1; conditions: WT-S1P1, HEK-293 cells
Sequence of WT S1P1 (P21453 whole entry): as the sequence (P21453 whole entry L213E) above, with E213L counted along it
Description: as §3

S1P1 mutant T5.49S = molecular target: T8, S1P1 mutant T5.49S (Homo sapiens, UniProt P21453, T211S); test: [35S]GTPγS binding, S1P1 T5.49S; format: biochemical; conditions: S1P-induced, S1P1 T5.49S in RH7777 cells
T8 construct: expressed in transfected cells; host or cells: RH7777 (transient, pcDNA3.1)
T8 sequence (P21453 whole entry T211S): as the sequence (P21453 whole entry L213E) above, with T211S, E213L counted along it
Description: as §1, §2

S1P1 mutant K5.38A = molecular target: T9, S1P1 mutant K5.38A (Homo sapiens, UniProt P21453, K200A); test: [35S]GTPγS binding, S1P1 K5.38A; format: biochemical; conditions: S1P-induced, S1P1 K5.38A in RH7777 cells
T9 construct: expressed in transfected cells; host or cells: RH7777 (transient, pcDNA3.1)
T9 sequence (P21453 whole entry K200A): as the sequence (P21453 whole entry L213E) above, with K200A, E213L counted along it
Description: as §1, §2

S1P1 mutant L3.36G = molecular target: T10, S1P1 mutant L3.36G (Homo sapiens, UniProt P21453, L128G); test: [35S]GTPγS binding, S1P1 L3.36G; format: biochemical; conditions: S1P-induced, S1P1 L3.36G in RH7777 cells
T10 construct: expressed in transfected cells; host or cells: RH7777 (transient, pcDNA3.1)
T10 sequence (P21453 whole entry L128G): as the sequence (P21453 whole entry L213E) above, with L128G, E213L counted along it
Description: as §1, §2

[2] = competition with cold S1P, read-out: KD + s.d.

T1 sequence (P21453 whole entry F210G): as the sequence (P21453 whole entry L213E) above, with F210G, E213L counted along it

CCCCCCCCCCCCC/C=C/[C@@H](O)[C@@H](N)COP(=O)(O)O [S1P, Sphingosine 1-phosphate]
[32P]S1P binding relative to WT (S1P1 mutant F5.48G): > 50 % of the WT | % WT Emax + s.d. (S1P1 mutant L5.51E): ∞ | EC50 + s.d. (S1P1 mutant L5.51E): ∞ | EC50 (S1P1 mutant C5.44D): 79 ± 17 nM | Emax (S1P1 mutant C5.44D; read-out: % WT Emax + s.d.): 85% | EC50 (S1P1 mutant V3.40T): 13.8 ± 1.8 nM | Emax (S1P1 mutant V3.40T; read-out: % WT Emax + s.d.): 137% | EC50 (S1P1 mutant V6.40T): 57.3 nM | Emax (S1P1 mutant V6.40T; read-out: % WT Emax + s.d.): 61% | Bmax (S1P1 mutant L3.36E): 1980 fmol | Kd (S1P1 mutant L3.36E; [2]): 27.8 nM | Bmax (S1P1 mutant W6.48A): 2080 fmol | Kd (S1P1 mutant W6.48A; [2]): 38.5 nM | % WT Emax + s.d. [1]: ∞ | EC50 + s.d. [1]: ∞ | Bmax (S1P1 mutant V6.40A): 2040 fmol | Kd (S1P1 mutant V6.40A; [2]): 27.6 nM | EC50 (S1P1 mutant F5.43Y): 23 nM | Emax (S1P1 mutant F5.43Y; read-out: % WT Emax + s.d.): 90% | Bmax (WT S1P1): 2450 fmol | Kd (WT S1P1; [2]): 38.7 nM | EC50 (S1P1 mutant T5.49S): 6.6 nM | Emax (S1P1 mutant T5.49S; read-out: % WT Emax + s.d.): 168% | EC50 (S1P1 mutant K5.38A): 32.4 nM | Emax (S1P1 mutant K5.38A; read-out: % WT Emax + s.d.): 97% | EC50 (S1P1 mutant L3.36G): 23 ± 8 nM | Emax (S1P1 mutant L3.36G; read-out: % WT Emax + s.d.): 75%
